Laboratory results from PMC8941859, “The FDA-Approved Drug Cobicistat Synergizes with Remdesivir To Inhibit SARS-CoV-2 Replication In Vitro and Decreases Viral Titers and Disease Progression in Syrian Hamsters” (mBio, 2022).
Several values for one entry are separate records, joined by “and”; a condition that tells them apart may be missing. Identical values can stand only once. Like-named read-outs stand apart in the source and are kept apart here.

Experiments:
3CLpro = 3CLpro (Severe acute respiratory syndrome coronavirus 2, UniProt P0DTD1); experiment: 3CLpro fluorescence resonance energy transfer (FRET) assay; type: biochemical, SARS-CoV-2; details: for FRET-determined EC50 (3CLpro): normalized to untreated control, nonlinear regression
Description: The activity of 3CLpro was measured by FRET assay (BPS Bioscience, San Diego, CA, USA) according to the manufacturer’s instructions and as previously described ([34]). […] Wells without drugs or without 3CLpro were used as positive control of 3CLpro activity and blank control, respectively. After a 30-min incubation, the 3CLpro substrate was added to each well and the plate was stored for 4 h in the dark. The fluorescence signal was acquired on an Infinite 200 PRO (Tecan, Männedorf, Switzerland) using an excitation wavelength of 360 nm and a detection wavelength of 460 nm. Relative 3CLpro was expressed as percentage of the positive control after subtraction of the blank.

SARS-CoV-2 [1] = experiment: microbe, parasite or virus in culture; type: cell-based
SARS-CoV-2 [2] = experiment: SARS-CoV-2-infected Syrian hamsters
SARS-CoV-2 [3] = experiment: Replication-competent virus in supernatant (plaque assay); type: cell-based; details: Vero E6 cells, MOI 0.05, 2.5-10 μM, 24 h postinfection
SARS-CoV-2 [4] = type: cell-based; details: 5 to 10 μM; MTT and crystal violet; Calu-3, T84, Vero E6
in vitro = type: cell-based; details: human; African green monkey
Description: Cell viability was evaluated by the MTT [3-(4,5-dimethylthiazol-2-yl)-2,5-diphenyl tetrazolium bromide] assay and by crystal violet staining as previously described ([76], [77]). Briefly, the MTT assay was conducted using the CellTiter 96 nonradioactive cell proliferation assay (MTT) (Promega; Madison, WI, USA). Cells were plated in a 96‐well plate at a concentration of 3 × 10^6 cells/mL in 100 μL of medium. The MTT solution (15 μL) was added to each well, and after 2 to 4 h, the reaction was stopped by the addition of 100 μL of 10% SDS. Absorbance values were acquired using an Infinite 200 PRO (Tecan, Männedorf, Switzerland) multimode plate reader at a 570-nm wavelength.
Data normality assumptions were tested by D’Agostino and Pearson normality test (for n > 3). Multiple-group comparisons were conducted by nonparametric Kruskal-Wallis test, followed by Dunn’s posttest, or by one-way or two-way analysis of variance (ANOVA) followed by Holm-Sidak or Dunnett posttests, respectively. Half-maximal inhibitory (IC50), effective (EC50), and cytotoxic (CC50) concentrations of the compounds were estimated by nonlinear regression after data normalization. […] Data analysis was conducted using GraphPad Prism v6 (GraphPad Software, San Diego, CA, USA). Synergy scores were calculated with the SynergyFinder web tool ([79]) using the Zero Interaction Potency (ZIP) model ([80]).

[5] = target: spike protein and human ACE2 (Severe acute respiratory syndrome coronavirus 2, UniProt P0DTC2); experiment: cell-based; set-up: species or system SARS-CoV-2; human; details: 1 h preincubation, luciferase after 24 h; read-out: IC50 of S-glycoprotein-mediated cell fusion
[6] = system: Vero E6 cells transfected with the SARS-CoV-2 S-protein; experiment: Syncytium formation assay; type: cell-based, African green monkey; details: 1, 5, 10 μM; 24 h posttransfection

## Cc1c(O)cccc1C(=O)N[C@@H](CSc1ccccc1)[C@H](O)CN1C[C@H]2CCCC[C@H]2C[C@H]1C(=O)NC(C)(C)C [Nelfinavir]
3CLpro
  FRET-determined EC50 (3CLpro): Could not be calculated

## CCC(CC)COC(=O)[C@H](C)N[P@](=O)(OC[C@H]1O[C@@](C#N)(c2ccc3c(N)ncnn23)[C@H](O)[C@@H]1O)Oc1ccccc1 [Remdesivir, remdesivir]
SARS-CoV-2 [1]; Severe acute respiratory syndrome coronavirus 2, Vero C1008, Vero E6 cells, MOI 0.5, 48 h, read-out: IC50 (viral RNA expression in supernatant)
  IC50: 0.74 µM
SARS-CoV-2 [1]; Severe acute respiratory syndrome coronavirus 2, T84 cells, MOI 0.5, 48 h, read-out: IC50 (viral RNA expression in supernatant)
  IC50: 0.35 µM
SARS-CoV-2 [2]; Day 3, single animal
  Alveolar alterations: Alveolar edema: 0
  Alveolar alterations: Epithelial necrosis: (1) and 0
  Alveolar alterations: Type II hyperplasia: 0
  Pneumonia: Consolidated lung area (%): 0%
  Pneumonia: Inflammation score: (1)
  Pneumonia: Lung area affected (%): 5% and <5%
  Vascular alterations: Endothelialitis: 0
  Vascular alterations: Perivascular edema: (1) and 0
  Vascular alterations: Perivascular lymphocytes: 0 and (1)
SARS-CoV-2 [2]; Day 5, single animal
  Alveolar alterations: Alveolar edema: 1 and 1–2 and 2
  Alveolar alterations: Epithelial necrosis: 2
  Alveolar alterations: Type II hyperplasia: 1 and 1–2
  Pneumonia: Consolidated lung area (%): 25% and 35% and 30%
  Pneumonia: Inflammation score: 2–3
  Pneumonia: Lung area affected (%): 40% and 70%
  Vascular alterations: Endothelialitis: 2–3 and 2
  Vascular alterations: Perivascular edema: (1) and 1 and 2
  Vascular alterations: Perivascular lymphocytes: 2 and 1–2

## Cc1cccc(C)c1OCC(=O)N[C@@H](Cc1ccccc1)[C@@H](O)C[C@H](Cc1ccccc1)NC(=O)[C@H](C(C)C)N1CCCNC1=O [Lopinavir]
3CLpro
  EC50: 219 µM

## CC(C)CN(C[C@@H](O)[C@H](Cc1ccccc1)NC(=O)O[C@H]1CO[C@H]2OCC[C@H]21)S(=O)(=O)c1ccc(N)cc1 [Darunavir]
3CLpro
  FRET-determined EC50 (3CLpro): Could not be calculated

## CC(C)c1nc(CN(C)C(=O)N[C@@H](CCN2CCOCC2)C(=O)N[C@H](CC[C@H](Cc2ccccc2)NC(=O)OCc2cncs2)Cc2ccccc2)cs1 [Cobicistat]
SARS-CoV-2 [3]
  Levels of replication-competent virus in supernatant: able to decrease the levels of replication-competent virus
SARS-CoV-2 [4]
  Viability of infected cells: partially rescue viability of infected cells
SARS-CoV-2 [1]; Calu-3 cells, time course, low-micromolar concentrations, qPCR N1 and N2 primers
  Effect on intracellular and supernatant viral RNA: dose-dependent inhibitory effect
SARS-CoV-2 [1]; Severe acute respiratory syndrome coronavirus 2, Calu-3, Vero E6 and T84 cells, MOI 0.05 and 0.5, treated 2 h postinfection, 48 h, read-out: IC50 (viral RNA release in supernatant), range
  IC50: 0.58 to 8.76 µM
In vitro
  CC50 at 48 h: 38.7 to 53 µM
SARS-CoV-2 [2]; 50 mg/kg
  Tolerability of dosing regimen in vivo: well tolerated
SARS-CoV-2 [2]; Day 3, single animal
  Alveolar alterations: Alveolar edema: 2 and 0
  Alveolar alterations: Epithelial necrosis: 1 and 0 and (1)
  Alveolar alterations: Type II hyperplasia: 1–2 and 0
  Pneumonia: Consolidated lung area (%): 20% and 0% and <5%
  Pneumonia: Inflammation score: 2–3 and (1) and 1
  Pneumonia: Lung area affected (%): 30% and <5% and 5–10%
  Vascular alterations: Endothelialitis: 2–3 and (1) and 1–2
  Vascular alterations: Perivascular edema: 1–2 and 0
  Vascular alterations: Perivascular lymphocytes: 1–2 and 0
SARS-CoV-2 [2]; Day 5, single animal
  Alveolar alterations: Alveolar edema: 3 and 2 and 2–3
  Alveolar alterations: Epithelial necrosis: 2 and 1
  Alveolar alterations: Type II hyperplasia: 2–3 and 3 and 1–2
  Pneumonia: Consolidated lung area (%): 50% and 30% and 35%
  Pneumonia: Inflammation score: 3 and 2–3
  Pneumonia: Lung area affected (%): 80% and 70% and 50%
  Vascular alterations: Endothelialitis: 2–3 and 3
  Vascular alterations: Perivascular edema: 2–3 and 2
  Vascular alterations: Perivascular lymphocytes: 2 and 1
SARS-CoV-2 [2]; cobicistat 50 mg/kg oral daily, remdesivir 15 mg/kg i.p. daily, days 3 and 5 p.i.
  Infectious progeny in the lung (PFU, plaque assay): significant decrease
[5]
  IC50: 3.83 µM and 3.8 µM
[6]
  Syncytium formation: decreased syncytium formation
3CLpro; FRET assay, Fig. S3A
  Effect on catalytic activity of 3CLpro: inactive
3CLpro
  FRET-determined EC50 (3CLpro): Could not be calculated

## CCC[C@@]1(CCc2ccccc2)CC(O)=C([C@H](CC)c2cccc(NS(=O)(=O)c3ccc(C(F)(F)F)cn3)c2)C(=O)O1 [Tipranavir]
3CLpro
  EC50: 47 µM
